Test results as given in ChEMBL document CHEMBL6153099, “Fatuamide A, a Hybrid PKS/NRPS Metallophore from a Leptolyngbya sp. Marine Cyanobacterium Collected in American Samoa” (J Nat Prod, 2025).
Active and inactive are the calls of the source. The calls are words filed in the database; no cut-off is given here.

Experiments:
NCI-H460 = assay: Cytotoxicity against human NCI-H460 cells at 2 to 60000 nM incubated for 48 hrs by MTT assay; assay type: functional, cell-based; conditions: dose 2-60000 nM
RAW264.7 = assay: Antiinflammatory activity in LPS-induced mouse RAW264.7 cells assessed as reduction in NO production at 10 to 30 microg/ml preincubated for 24 hrs by Griess reagent based assay; assay type: functional, cell-based; conditions: dose 10-30 µg/ml

SMILES: C[C@H](C[C@@H](C)CCC(=O)N[C@@H](Cc1ccccc1)[C@H](O)C[C@H](O)CC(=O)N[C@@H](Cc1ccccc1)[C@H](O)CC(=O)NCC(=O)O)C[C@@H]1CSC(c2ccccc2O)=N1
- Activity (NCI-H460): Active
- Activity (RAW264.7): inactive
